Measured values published in patent US6376230B1 (dated 2002).

melting point | Structure (SMILES)
138 to 144 °C (dec.) | CC1=C(O)CCOC1=O
98 to 99 °C (dec.) | CCCCCCC1=C(O)CCOC1=O
